Experimental data taken from ChEMBL document CHEMBL1201862, “PubChem BioAssay data set” (2004).
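Test compounds were applied to cells in 96-well plates for 48 hours at 5 doses. GI50 marks 50% less growth.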 Active and inactive are the calls of the source. No stated cut-off is given here; in the data, active = GI50 up to about 1.1 µM and inactive = higher.

Tests used:
Assay in all cases: growth of human tumour cells (NCI), 48 h
NCI-H23 = system: NCI-H23
UO-31 = system: UO-31
SK-MEL-5 = system: SK-MEL-5
NCI-H460 = system: NCI-H460
T47D = system: T47D
UACC-62 = system: UACC-62
MDA-MB-231 = system: MDA-MB-231
HCT-15 = system: HCT-15
CCRF-CEM = system: CCRF-CEM
KM12 = system: KM12
SF-295 = system: SF-295
SK-MEL-28 = system: SK-MEL-28
K562 = system: K562
U-251 = system: U-251
IGROV-1 = system: IGROV-1
NCI/ADR-RES = system: NCI/ADR-RES
UACC-257 = system: UACC-257
MCF7 = system: MCF7
SR = system: SR
SK-MEL-2 = system: SK-MEL-2

Compound | GI50 (NCI-H23) | GI50 (UO-31) | GI50 (SK-MEL-5) | GI50 (NCI-H460) | GI50 (T47D) | GI50 (UACC-62) | GI50 (MDA-MB-231) | GI50 (HCT-15) [µM] | GI50 (CCRF-CEM) | GI50 (KM12) | GI50 (SF-295) | GI50 (SK-MEL-28) | GI50 (K562) | GI50 (U-251) | GI50 (IGROV-1) | GI50 (NCI/ADR-RES) | GI50 (UACC-257) | GI50 (MCF7) | GI50 (SR) | GI50 (SK-MEL-2)
CC(C)c1ccc2nc3ccc(C(=O)NCCN(C)C)cn3c(=O)c2c1 | 15.5 µM (inactive) | 14.6 µM (inactive) | 12.4 µM (inactive) | 17.6 µM (inactive) | 19.1 µM (inactive) | 16.6 µM (inactive) | 15 µM (inactive) | 13.8 | 14.9 µM (inactive) | 17.3 µM (inactive) | 10.9 µM (inactive) | 16.5 µM (inactive) | 2.57 µM (inactive) | 19.9 µM (inactive) | 30.8 µM (inactive) | 18.2 µM (inactive) | 12.1 µM (inactive) | 16.3 µM (inactive) | 17.5 µM (inactive) | –
COC1=C(N2CC2)C(=O)c2nc3n(c2C1=O)CCC3 | 0.497 µM (active) | 0.224 µM (active) | 1.29 µM (inactive) | 0.45 µM (active) | 1.79 µM (inactive) | 1.54 µM (inactive) | 2.72 µM (inactive) | 0.368 | 0.265 µM (active) | 1.37 µM (inactive) | 0.815 µM (active) | 4.01 µM (inactive) | 0.271 µM (active) | 1.4 µM (inactive) | 1.43 µM (inactive) | 0.453 µM (active) | – | 0.532 µM (active) | 0.357 µM (active) | –
COc1cccc(N(CN2CC=CC2=O)C(C)=O)c1 | > 100 µM (inactive) | > 100 µM (inactive) | > 100 µM (inactive) | > 100 µM (inactive) | > 100 µM (inactive) | > 100 µM (inactive) | > 100 µM (inactive) | > 100 | > 100 µM (inactive) | > 100 µM (inactive) | > 100 µM (inactive) | > 100 µM (inactive) | > 100 µM (inactive) | > 100 µM (inactive) | > 100 µM (inactive) | > 100 µM (inactive) | > 100 µM (inactive) | > 100 µM (inactive) | – | > 100 µM (inactive)
COc1cc(S(=O)(=O)Nc2nc(-c3ccc(N4C(=O)C(CC(=O)O)SC4c4cccs4)cc3)cs2)ccc1Cl (configuration not stated) | 22.6 µM (inactive) | 19.9 µM (inactive) | > 100 µM (inactive) | > 100 µM (inactive) | 25.9 µM (inactive) | 23.4 µM (inactive) | 81.1 µM (inactive) | 19.9 | – | 36.9 µM (inactive) | > 100 µM (inactive) | 70.1 µM (inactive) | 39 µM (inactive) | 42.6 µM (inactive) | 27.1 µM (inactive) | 29.3 µM (inactive) | 41.9 µM (inactive) | 25 µM (inactive) | 44.9 µM (inactive) | 27.8 µM (inactive)
COc1ccc2[nH]c3c([N+](=O)[O-])ccc(Cl)c3c(=O)c2c1 | 24.8 µM (inactive) | 17.3 µM (inactive) | 23.9 µM (inactive) | 29 µM (inactive) | 29.2 µM (inactive) | 18 µM (inactive) | 18 µM (inactive) | 14.2 | 2.12 µM (inactive) | > 45.5 µM (inactive) | 38 µM (inactive) | 27.2 µM (inactive) | 2.99 µM (inactive) | 25.4 µM (inactive) | 13.1 µM (inactive) | 25.6 µM (inactive) | 11.5 µM (inactive) | 25.1 µM (inactive) | – | 22.1 µM (inactive)
Cc1cc(-c2nc3cc(F)ccc3s2)ccc1NC(=O)[C@@H](N)CCCCN | 1.48 µM (inactive) | 3.29 µM (inactive) | 13.4 µM (inactive) | 0.132 µM (active) | < 0.0138 µM (active) | 9.55 µM (inactive) | 2.29 µM (inactive) | 4.33 | – | 1.3 µM (inactive) | 2.65 µM (inactive) | 18.9 µM (inactive) | 2.17 µM (inactive) | 1.88 µM (inactive) | < 0.0131 µM (active) | 15.2 µM (inactive) | 5.71 µM (inactive) | 0.01 µM (active) | 0.802 µM (active) | 2.89 µM (inactive)
COc1ccc(/N=N/c2c(C)c(C#N)c(=S)n(C3OC(COC(C)=O)C(OC(C)=O)C(OC(C)=O)C3OC(C)=O)c2C)cc1 (configuration not stated) | > 100 µM (inactive) | > 100 µM (inactive) | > 100 µM (inactive) | > 100 µM (inactive) | > 100 µM (inactive) | > 100 µM (inactive) | 21.7 µM (inactive) | – | > 100 µM (inactive) | > 100 µM (inactive) | 57.5 µM (inactive) | > 100 µM (inactive) | > 100 µM (inactive) | 8.09 µM (inactive) | > 100 µM (inactive) | > 100 µM (inactive) | > 100 µM (inactive) | > 100 µM (inactive) | > 100 µM (inactive) | –
C[C@]12CC[C@H]3[C@@H](CCC4=CC(=O)CC[C@@]43C)[C@@H]1CC[C@@H]2OC(=O)c1cccc2c(=O)c3ccccc3[nH]c12 | > 100 µM (inactive) | > 100 µM (inactive) | 37.4 µM (inactive) | 46.8 µM (inactive) | 57.3 µM (inactive) | 29.4 µM (inactive) | > 100 µM (inactive) | 37.6 | 58.1 µM (inactive) | 37.2 µM (inactive) | > 100 µM (inactive) | > 100 µM (inactive) | 16.3 µM (inactive) | 61.2 µM (inactive) | > 100 µM (inactive) | 64 µM (inactive) | 99.5 µM (inactive) | > 100 µM (inactive) | – | > 100 µM (inactive)
COc1cc2c(c(OC)c1OC)C(=O)[C@@H]1[C@H]2N1C(N)=O | 69.2 µM (inactive) | > 100 µM (inactive) | 77.4 µM (inactive) | 98.2 µM (inactive) | > 100 µM (inactive) | 22.1 µM (inactive) | > 100 µM (inactive) | > 100 | > 100 µM (inactive) | > 100 µM (inactive) | > 100 µM (inactive) | > 100 µM (inactive) | > 100 µM (inactive) | 47 µM (inactive) | 94.8 µM (inactive) | > 100 µM (inactive) | > 100 µM (inactive) | > 100 µM (inactive) | > 100 µM (inactive) | –
COc1cc(/C=C/C(=O)OCCc2ccccc2)ccc1O | 17.2 µM (inactive) | 13.9 µM (inactive) | 19.5 µM (inactive) | 18.6 µM (inactive) | 13.5 µM (inactive) | 12.7 µM (inactive) | 14.2 µM (inactive) | 21.7 | – | 14.6 µM (inactive) | 17.3 µM (inactive) | 13.9 µM (inactive) | 20.1 µM (inactive) | 16 µM (inactive) | 14.1 µM (inactive) | 23.7 µM (inactive) | 18.1 µM (inactive) | 20.8 µM (inactive) | 24.7 µM (inactive) | 21.6 µM (inactive)
COc1cc2c(cc1-c1coc3cc(O)ccc3c1=O)OCO2 [CUNEATIN] | 19.5 µM (inactive) | 22.1 µM (inactive) | 37.2 µM (inactive) | 18.1 µM (inactive) | 29.6 µM (inactive) | 23.6 µM (inactive) | > 10 µM (inactive) | 18.6 | > 100 µM (inactive) | 33.3 µM (inactive) | 20.4 µM (inactive) | 45.8 µM (inactive) | > 100 µM (inactive) | 21.5 µM (inactive) | 22.9 µM (inactive) | 21.8 µM (inactive) | 26 µM (inactive) | 35.3 µM (inactive) | – | 37 µM (inactive)
